Results on 4 molecules are retold here after patent US20240216514A1, “NOVEL ANTITUMOR COMPOUNDS AND RELATED METHODS OF MANUFACTURE AND USE” (KLOTHO THERAPEUTICS, INC., priority 2021, published 2024).

For orientation: IC50 means the concentration at which inhibition is half-maximal. A high value points to weaker potency in that assay.

Data set [1] concerns Huh-7. Kind of data set: Tumor cell growth inhibition, CellTiter-Glo viability, Huh-7. Type of data set: cell-based. To be noted: Huh-7, Liver; 72 hours. How it is done: (§1) To support the potential of compounds of the invention as antitumor agents, their ability to inhibit tumor cell growth across a range of cancer types was evaluated, compared to cisplatin (See FIGS. 3A-3C and FIGS. 4A-4C). Cancer cells were seeded at optimized density on 384-well plates in appropriate media for 24 hours in triplicate for each test article. Titrated compounds or cisplatin were added to cultures for 72 hours with 3-fold dilutions totaling 9 concentrations starting from 30 uM for compounds or 50 uM for cisplatin (see FIGS. 3A-3C). Cell viability was then determined by CellTiter-Glo® Luminescent Cell Viability Assay from Promega, Madison Wisconsin. A dose response curve (see FIGS. 4A-4C) was fitted from luminance activity and the IC50 for each test article was calculated using a four-parameter variable slope in GraphPad Prism version 8.0.0 for Windows, GraphPad Software, San Diego, California USA, www.graphpad.com. Conjugates were more cytotoxic to cancer cells compared to cisplatin alone, some were particularly noteworthy in colon cancer (HCT-15), prostate cancer (PC-3), and breast cancer (MCF-7) cells compared to cisplatin (see, also, Table 1, below).

Data set [2] has as its system Hela. Kind of data set: Tumor cell growth inhibition, CellTiter-Glo viability, Hela. The format is cell-based. Particulars: Cervical, 72 hours. How it is done:
as §1

Data set [3] deals with H929. The data set is described as follows: Tumor cell growth inhibition, CellTiter-Glo viability, H929. Type of data set: cell-based. Particulars: H929, Bone Marrow; 72 hours. The procedure: as §1
Data set [4] concerns MDA-MB-231. Kind of data set: Tumor cell growth inhibition, CellTiter-Glo viability, MDA-MB-231. The format is cell-based. To be noted: MDA-MB-231, Breast; 72 hours. How it is done: as §1
In general terms: In ATP-based viability assays light output follows the ATP content of the culture.

Data set [5] concerns PC-3. Kind of data set: Tumor cell growth inhibition, CellTiter-Glo viability, PC-3. The format is cell-based. Particulars: PC-3, Prostate; 72 hours. The procedure: as §1
The subject of data set [6] is LNCap. The data set is described as follows: Tumor cell growth inhibition, CellTiter-Glo viability, LNCap. The format is cell-based. To be noted: Prostate, 72 hours. How it is done: as §1
Data set [7] relates to MCF-7. Kind of data set: Tumor cell growth inhibition, CellTiter-Glo viability, MCF-7. Type of data set: cell-based. Particulars: MCF-7, Breast; 72 hours. How it is done: as §1
Data set [8] has as its system HepG2-PM4. The data set is described as follows: Tumor cell growth inhibition, CellTiter-Glo viability, HepG2-PM4. The format is cell-based. To be noted: HepG2-PM4, Liver; 72 hours. The procedure:
as §1

For data set [9], the system named is HCT-15. The data set is described as follows: Tumor cell growth inhibition, CellTiter-Glo viability, HCT-15. The format is cell-based. To be noted: HCT-15, Colon; 72 hours. The procedure:
as §1

Data set [10] has as its target HDAC8 (Homo sapiens, UniProt Q9BY41). Particulars: cited from earlier work.
Data set [11] relates to nephrotoxin-induced and ischemia/reperfusion-induced kidney injury. Particulars: rodents; cited from earlier work.
The nature of data set [12]: Chemoprotection against cisplatin-induced myelotoxicity. To be noted: preliminary results. The text has this: Accordingly, by combining PTBA or its analogs with cisplatin through chemical conjugation, not only will the conjugate drug have the potential to act as a synergistic anti-cancer drug combination in its own right, but PTBA and its analogs will also provide for chemoprotection against nephrotoxicity during cancer therapy. […] By reducing adverse side effects, this chemoprotective characteristic of PTBA and its analogs, co-administered as a chemical conjugate with cisplatin, has the potential to increase drug tolerability, to permit uninterrupted treatment schedules, and to eliminate the need to reduce drug doses.

Sequence of HDAC8 (Q9BY41 whole entry, the tested form may be a part): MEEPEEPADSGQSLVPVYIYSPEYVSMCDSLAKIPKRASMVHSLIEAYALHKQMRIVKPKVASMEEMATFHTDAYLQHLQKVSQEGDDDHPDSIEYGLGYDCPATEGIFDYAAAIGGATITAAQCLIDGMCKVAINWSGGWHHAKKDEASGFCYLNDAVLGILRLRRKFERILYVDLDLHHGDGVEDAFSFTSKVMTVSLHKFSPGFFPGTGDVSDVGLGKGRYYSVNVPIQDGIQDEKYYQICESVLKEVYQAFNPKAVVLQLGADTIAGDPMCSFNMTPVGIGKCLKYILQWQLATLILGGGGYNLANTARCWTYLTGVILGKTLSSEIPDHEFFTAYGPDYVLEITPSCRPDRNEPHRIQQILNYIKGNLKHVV

Turning to `N.N.[Cl][Pt][Cl]` [Cisplatin, cisdiamminedichloroplatinum [II]], the half-inhibitory concentration (IC50) in data set [1] was determined as 6.47 µM; in [2], 12.3 µM; in [3], 2.35 µM; in data set [4], 2.85 µM; in data set [5], 22 µM; in data set [6], 10.9 µM. Moreover, the concentration for half-maximal inhibition (IC50) came out at 2.25 µM in data set [7], 14 µM in data set [8] and 24.3 µM in data set [9].
As for `O=C(CCCCCCC(=O)Nc1ccccc1)NO` [Vorinostat, suberoylanilide hydroxamic acid], in data set [10], the “Inhibition of HDAC8 (potency range)” value is recorded as “micromolar range”.
Trichostatin A: the “Concentration that completely inhibits HDAC8 activity” value in data set [10] was 5 µM.
Turning to `O=C(O)CCCSc1ccccc1` [PTBA, 4-(phenylthio)butanoic acid], in data set [11], the “Recovery of kidney function after AKI” value is “significantly accelerate recovery of kidney function”. Besides, the “Chemoprotective effect against cisplatin-induced myelotoxicity” value in data set [12] is on record as “chemoprotective effect”.
